# Values of other authors in patent US6994864B2, “Composition containing 7-hydroxy DHEA and/or 7-keto DHEA and at least a carotenoid” (L'Oreal, priority 2000, dated 2006).
# Key:
# skin of rats = conditions: on rats
smiles,measurement,setting,value
C[C@]12CC[C@H](O)CC1=C[C@@H](O)[C@@H]1[C@@H]2CC[C@]2(C)C(=O)CC[C@@H]12 [7α-hydroxy-DHEA],proliferation of the fibroblasts,fibroblasts,increase
same,elastin and collagen content of the skin,skin of rats,increased
same,thickness of the dermis,skin of rats,increased
same,viability of the human keratinocytes,human keratinocytes,increase
